Results as given in patent US20250312370A1, “SYSTEMS AND METHODS FOR USE OF ADENOSINE TRIPHOSPHATE (ATP) TO RELIEVE SYMPTOMS OF COVID-19 AND RELATED INFECTIONS” (ADENYLATE THERAPEUTICS LLC, priority 2020, published 2025).

What was measured:
[1] = in vivo; cited from earlier work
[2] = tested on: COVID-19; assay: non-randomized trial of oral ATP supplementation for treatment of COVID-19 at two residential care facilities (facilities 1 and 2); assay type: in vivo, human
Excerpt: FIG. 3 provides a summary of short-term results of a non-randomized trial of ATP supplementation for treatment of COVID-19 at two different residential care facilities. When the facilities experienced a rapid and insidious onset of COVID-19 in 2020, optional oral ATP nutritional supplementation to COVID-19-positive patients in these two facilities was offered. Patients were given free choice to either accept or reject ATP supplementation. ATP doses ranged from 400-mg capsules four times per day (1600 mg) in the younger patients at facility 1 to three 400-mg capsules three times per day (3600 mg) for the older patients in facility 2. In both facilities, ATP was taken for at least a week after confirmation of SARS-CoV-2 infection. ATP also was offered in powder form to be mixed with food or drink at 450 mg per dose.
From the initial 13 patients diagnosed with COVID-19 in facility 1, six patients with average age 75.0 years chose to start ATP while the remaining seven with average age 74.7 years chose not to take ATP. Because of the visible developing benefit conferred by ATP, all subsequent COVID-19 patients at the facility 1 chose to begin taking ATP at the time of their diagnoses. All six patients who initially chose ATP were still alive.
At facility 2, all of the patients receiving ATP started taking ATP on the same day following confirmation of viral infection. All of the facility 2 patients taking ATP were alive. Because all patients taking ATP were elderly with multiple co-morbidities (including diabetes and heart disease), it would be expected that their death rate should be worse than that of the general population of individuals over 70 years of age.

[3] = tested on: COVID-19; assay: oral ATP supplementation of COVID-19 patients in facility 3; assay type: in vivo, human; details: protocol similar to facilities 1 and 2
Excerpt: Using a protocol similar to those used in facilities 1 and 2, ATP supplementation was begun in facility 3.

[4] = high dose oral ATP, cited from earlier work
[5] = prolonged infusion; chronically debilitated patients with metastatic treatment refractory disease (Stage IV cancer); cited from earlier work
[6] = tested on: advanced hormone refractory prostate cancer; details: oral ATP added to palliative agents such as samarium-153; cited from earlier work

Nc1ncnc2c1ncn2[C@@H]1O[C@H](COP(=O)(O)OP(=O)(O)OP(=O)(O)O)[C@@H](O)[C@H]1O [ATP, Adenosine Triphosphate]
pulmonary artery hypertension [1]: reverse
survival of COVID-19-positive patients accepting oral ATP ([2]; facilities 1 and 2, oral ATP 1600-3600 mg per day for at least a week, 2 months after the initiation of supplemental ATP): alive and recovering
survival of patients who initially chose ATP ([2]; facility 1, six patients, average age 75.0 years, 400-mg capsules four times per day): still alive
survival of patients taking ATP ([2]; facility 2, older patients, three 400-mg capsules three times per day): alive
survival of COVID-19 patients taking supplemental ATP [3]: survived except for one patient
cancer patient survival ([4]; advanced cancer patients): improved
athletic performance ([4]; athletes): improved
safety of administration [5]: safely administered
prostate biomarker PSA [6]: dramatically reduces
